Converted amounts (≈) assume the structure as drawn. Like-named read-outs stand apart in the source and are kept apart here.
Tests used:
Assay type in all cases: cell-based
[1] = tested on: methicillin resistant Staphylococcus epidermidis (ATCC 27626); assay: microbe, parasite or virus in culture; conditions: for MIC: Staphylococcus epidermidis, ATCC 27626 / MRSE; for Therapeutic index MRSE: EC50 RBC divided by MIC
Protocol: (§1) The antimicrobial testing was conducted by TosLab A/S (Tromsø, Norway). Each compound was diluted to 1 mg/ml in water and tested in duplicates at 200, 100, 50, 35, 15, 10, 5, 2.5, 1, 0.5 μg/ml except 4n which was tested at 50, 35, 15, 10, 5, 2.5, 1, 0.5 μg/ml due to solubility problems. All tested compounds were di TFA salts.
(§2) The bacterial strains were grown in 2% Bacto Peptone water until exponential growth was achieved. […] A bacterial concentration of 2×10^6 cfu/ml was used. Both negative control (no peptide) and positive control (Gentamicin) was used for all bacterial strains. Growth or no growth was judged by the turbidity of the wells.
Methicillin resistant Staphylococcus epidermidis (ATCC 27626)
(§3) Antimicrobial assays: 200 μg/ml
(§4) Suitable methodologies are described in Example 1.
(§5) Each compound was tested in duplicates at 200, 100, 50, 35, 15, 10, 5, 2.5, 1, 0.5 μg/ml. All tested compounds were di-trifluoroacetic acid salts.

human red blood cells = assay: cells; conditions: Erythrocyte, highest concentration tested 1000 μg/ml
Protocol: The hemolytic testing against human erythrocytes was conducted by Lytix Biopharma A/S (Tromso, Norway). Each compound was tested from a concentration of 1 mg/ml and lower, except 4k and 4n which was only tested up to 0.5 mg/ml due to solubility problems. 8 mL of blood was collected from adult healthy male donors. The blood was divided equally and distributed in a commercial available EDTA containing test tube (BD vacutainer, 7.2 mg K2 EDTA) and in a 10 mL reaction vial containing 40 μL of a heparin solution (1000 U/mL in 0.9% sodium chloride). After 30 minutes the hematocrit of the EDTA treated blood was determined. The heparinized blood was centrifuged for 10 minutes at 1500 rpm and the supernatant removed. Subsequently the RBCs were washed with prewarmed PBS three times, and diluted to 10% hematocrit. The compounds dissolved in PBS (concentration 1 μg/mL to 1000 µg/mL) and the erythrocytes were incubated under agitation at 37° C. for one hour. A positive control with an end concentration of 0.1% TRITON X-100 (nonionic surfactant) and a negative control containing pure PBS buffer were included. The samples were centrifuged (4000 rpm) for 5 minutes and the absorption of the supernatant was measured at 405 nm. The values given in Table 1A correspond to 50% hemolysis.
The plasma fraction of heparinized human blood was first removed by centrifugation and three additional washing steps with 37° C. pre-warmed phosphate buffered saline (PBS). Subsequently, the human RBC were diluted to 10% hematocrit and the β^2,2-amino acid derivatives were dissolved in PBS providing concentrations ranging from 1-1000 μg/mL. The diluted RBC were added to the compound solutions to a final erythrocyte concentration of 1% v/v. PBS and TRITON X-100 (non-ionic surfactant), in a final concentration of 0.1% v/v, were included as negative and positive control. After 1 hour agitated incubation at 37° C. the samples were centrifuged at 4000 rpm for 5 min. Release of hemoglobin was determined by measuring the absorbance of the supernatant at 405 nm. Hemolytic activity was calculated as the ratio of treated sample with β^2,2-amino acid derivative and tenside treated sample according to the formula: […]

[2] = tested on: methicillin resistant Staphylococcus aureus (ATCC 33591); assay: microbe, parasite or virus in culture; conditions: for MIC: Staphylococcus aureus; for Therapeutic index MRSA: EC50 RBC divided by MIC
Protocol: as §1, §2
Methicillin resistant Staphylococcus aureus (ATCC 33591)
as §3, §4, §5

[3] = tested on: Staphylococcus aureus (ATTC 25923); assay: microbe, parasite or virus in culture; conditions: for MIC: Staphylococcus aureus; for Therapeutic index S. aureus: EC50 RBC divided by MIC
Protocol: as §1, §2
Staphylococcus aureus (ATTC 25923)
as §3, §4, §5

MRC-5 = assay: Toxicity assay MRC-5; conditions: highest concentration tested 500 μg/ml; for IC50: Homo sapiens, MRC5, Example 2
Protocol: Cells for Toxicity Studies Used MRC-5 and human RBC MRC-5 assay: 500 μg/ml

[4] = tested on: Escherichia coli (ATTC 25922); assay: microbe, parasite or virus in culture; conditions: for MIC: Escherichia coli; for Therapeutic index E. coli: EC50 RBC divided by MIC
Protocol: as §1, §2
Escherichia coli (ATTC 25922)
as §3, §4, §5

[5] = Example 2, values separated by / are repeat tests, read-out: Antimicrobial potency (MIC) MRSE
[6] = Homo sapiens, Example 2, * low solubility in the test media, read-out: Toxicity RBC (EC50)
[7] = ATCC 33591 / MRSA, Example 2, values separated by / are repeat tests, read-out: Antimicrobial potency (MIC) MRSA
[8] = Example 2, values separated by / are repeat tests, read-out: Antimicrobial potency (MIC) S. aureus
[9] = Example 2, values separated by / are repeat tests, read-out: Antimicrobial potency (MIC) E. coli
[10] = Example 2, values separated by / are repeat tests
[11] = Example 4, ATCC 27626, di-trifluoroacetate salts, highest concentration tested 200 μg/ml, read-out: MIC MRSE
[12] = Example 4, hemolytic activity, human red blood cells, read-out: EC50 RBC
[13] = ATCC33591, Example 4, ATCC 33591, di-trifluoroacetate salts, highest concentration tested 200 μg/ml, read-out: MIC MTRSA
[14] = ATCC25923, Example 4, ATCC 25923, di-trifluoroacetate salts, highest concentration tested 200 μg/ml, read-out: MIC S. aureus
[15] = ATCC25922, Example 4, ATCC 25922, di-trifluoroacetate salts, highest concentration tested 200 μg/ml, read-out: MIC E. coli

SMILES | MIC [1, 5] | EC50 (human red blood cells; [6]) | MIC [2, 7] | MIC [3, 8] | IC50 (MRC-5) | MIC [4, 9] | Antimicrobial potency (MIC) MRSE [1, 10] | Antimicrobial potency (MIC) S. aureus [3, 10] | Toxicity MRC-5 (MRC-5; Example 2) | MIC [1, 11] | EC50 (human red blood cells; [12]) | MIC [2, 13] | MIC [3, 14] | MIC [4, 15] | Therapeutic index MRSE [1] | Therapeutic index MRSA [2] | Therapeutic index S. aureus [3] | Therapeutic index E. coli [4]
NCCNC(=O)C(CN)(CCc1ccccc1)CCc1ccccc1 [Compound 5, N-(2-aminoethyl)-2-(aminomethyl)-2-phenethyl-4-phenylbutanamide] | 50 µg/mL | > 1000 µg/mL | 100 µg/mL | 100 µg/mL | 21.5 µg/mL (≈ 63.3 µM) | > 200 µg/mL |  |  |  |  |  |  |  |  |  |  |  | 
CC(C)(C)c1cc(CC(CN)(Cc2cc(C(C)(C)C)cc(C(C)(C)C)c2)C(=O)NCCN)cc(C(C)(C)C)c1 [Compound 14, 3-amino-N-(2-aminoethyl)-2,2-bis(3,5-di-tert-butylbenzyl)propanamide] | 2.5 µg/mL | > 62.5 µg/mL | 2.5 µg/mL | 3.75 µg/mL | 7.5 µg/mL (≈ 14 µM) |  | 5 µg/mL | 5 µg/mL | 8.5 µg/mL |  |  |  |  |  |  |  |  | 
CN(C)CCNC(=O)C(CN)(Cc1ccc(C(F)(F)F)cc1)Cc1ccc(C(F)(F)F)cc1 [Compound 28, 3-amino-N-(2-(dimethylamino)ethyl)-2,2-bis(4-(trifluoromethyl)benzyl)-propanamide] | 15 µg/mL | 329 µg/mL | 5 µg/mL | 10 µg/mL |  | 35 µg/mL |  |  |  |  |  |  |  |  |  |  |  | 
CN1CCN(C(=O)C(CN)(Cc2ccc(C(C)(C)C)cc2)Cc2ccc(C(C)(C)C)cc2)CC1 [Compound 29, 3-amino-2,2-bis(4-tert-butylbenzyl)-1-(4-methylpiperazin-1-yl)propan-1-one] | 5 µg/mL | 241 µg/mL | 10 µg/mL | 10 µg/mL |  | 10 µg/mL |  |  |  |  |  |  |  |  |  |  |  | 
Cc1cc(C)cc(CC(CN)(Cc2cc(C)cc(C)c2)C(=O)N2CCN(C)CC2)c1 [Compound 30, 3-amino-2,2-bis(3,5-dimethyl-benzyl)-1-(4-methylpiperazin-1-yl)propan-1-one] | 35 µg/mL | > 1000 µg/mL | 200 µg/mL | > 200 µg/mL |  | 200 µg/mL |  |  |  |  |  |  |  |  |  |  |  | 
CN1CCN(C(=O)C(CN)(CCCc2ccccc2)CCCc2ccccc2)CC1 [Compound 31, 2-(aminomethyl)-1-(4-methyl-piperazin-1-yl)-5-phenyl-2-(3-phenylpropyl)pentan-1-one] | 200 µg/mL | > 1000 µg/mL | 200 µg/mL | 200 µg/mL |  | 200 µg/mL |  |  |  |  |  |  |  |  |  |  |  | 
CN1CCN(C(=O)C(CN)(Cc2ccc3ccccc3c2)Cc2ccc3ccccc3c2)CC1 [Compound 32, 3-amino-1-(4-methylpiperazin-1-yl)-2,2-bis(naphthalen-2-ylmethyl)propan-1-one] | 10 µg/mL | 225 µg/mL | 5 µg/mL | 10 µg/mL |  | 15 µg/mL |  |  |  |  |  |  |  |  |  |  |  | 
CN1CCN(C(=O)C(CN)(Cc2ccc(C(F)(F)F)cc2)Cc2ccc(C(F)(F)F)cc2)CC1 [Compound 33, 3-amino-1-(4-methylpiperazin-1-yl)-2,2-bis(4-(trifluoromethyl)benzyl)propan-1-one] | 50 µg/mL | 376 µg/mL | 10 µg/mL | 35 µg/mL |  | 50 µg/mL |  |  |  |  |  |  |  |  |  |  |  | 
CN(C)CCN1CCN(C(=O)C(CN)(Cc2ccc(C(C)(C)C)cc2)Cc2ccc(C(C)(C)C)cc2)CC1 [Compound 34, 3-amino-2,2-bis(4-tert-butylbenzyl)-1-(4-(2-(dimethylamino)ethyl)piperazin-1-yl)propan-1-one] | 10 µg/mL | 252 µg/mL | 10 µg/mL | 10 µg/mL |  | 10 µg/mL |  |  |  |  |  |  |  |  |  |  |  | 
CN(C)CCN1CCN(C(=O)C(CN)(CCCc2ccccc2)CCCc2ccccc2)CC1 [Compound 36, 2-(aminomethyl)-1-(4-(2-(dimethyl-amino)ethyl)piperazin-1-yl)-5-phenyl-2-(3-phenylpropyl)pentan-1-one] | 50 µg/mL | > 1000 µg/mL | 50 µg/mL | 200 µg/mL |  | 200 µg/mL |  |  |  |  |  |  |  |  |  |  |  | 
CN(C)CCN1CCN(C(=O)C(CN)(Cc2ccc3ccccc3c2)Cc2ccc3ccccc3c2)CC1 [Compound 37, 3-amino-1-(4-(2-(dimethylamino)ethyl)piperazin-1-yl)-2,2-bis(naphthalen-2-ylmethyl)propan-1-one] | 10 µg/mL | 301 µg/mL | 2.5 µg/mL | 15 µg/mL |  | 35 µg/mL |  |  |  |  |  |  |  |  |  |  |  | 
CN(C)CCN1CCN(C(=O)C(CN)(Cc2ccc(C(F)(F)F)cc2)Cc2ccc(C(F)(F)F)cc2)CC1 [Compound 38, 3-amino-1-(4-(2-(dimethylamino)ethyl)piperazin-1-yl)-2,2-bis(4-(trifluoromethyl)benzyl)propan-1-one] | 50 µg/mL | 862 µg/mL | 5 µg/mL | 35 µg/mL |  | 100 µg/mL |  |  |  |  |  |  |  |  |  |  |  | 
CN1CCN(C(=O)C(CN)(CCCc2ccccc2)CCCc2ccccc2)CC1 [Entry 5a] |  |  |  |  |  |  |  |  |  | 315 µM | > 1000 µg/mL | 315 µM | 315 µM | 315 µM |  |  |  | 
CN1CCN(C(=O)C(CN)(Cc2ccc(C(F)(F)F)cc2)Cc2ccc(C(F)(F)F)cc2)CC1 [Entry 5b] |  |  |  |  |  |  |  |  |  | 70 µM | 525 µM | 14 µM | 49 µM | 70 µM | 7.5 | 38 | 11 | 7.5
CN(C)CCNC(=O)C(CN)(CCCc1ccccc1)CCCc1ccccc1 [Entry 6a] |  |  |  |  |  |  |  |  |  | 56 µM | 507 µM | 56 µM | 56 µM | 160 µM | 9.1 | 9.1 | 9.1 | 3.2
CN(C)CCNC(=O)C(CN)(Cc1ccc(C(F)(F)F)cc1)Cc1ccc(C(F)(F)F)cc1 [Entry 6b] |  |  |  |  |  |  |  |  |  | 21 µM | 468 µM | 7.1 µM | 14 µM | 50 µM | 22 | 66 | 33 | 9.4
NCCNC(=O)C(CN)(CCCc1ccccc1)CCCc1ccccc1 [Entry 7a] |  |  |  |  |  |  |  |  |  | 25 µM | 1380 µM | 59 µM | 71 µM | 336 µM | 55 | 23 | 19 | 4.1
NCCNC(=O)C(CN)(Cc1ccc(C(F)(F)F)cc1)Cc1ccc(C(F)(F)F)cc1 [Entry 7b] |  |  |  |  |  |  |  |  |  | 15 µM | 425 µM | 7.4 µM | 15 µM | 52 µM | 28 | 57 | 28 | 8
